Experiment: recombinant UMI read abundance after kanamycin selection (control-corrected) (log10(CPM+1)); higher = more efficient recombination; extreme values may be limits of the assay; sequences stand for … in AGTGCAGAGAAAATCGGCCAGTTTTCTCTGCCTGCAGTCCGCATGCCGTGGGACCCCTTGGGTTCTAACCTGTTGCCTAGATTTATGCAGCGGACTGCCTTTCTCCCAAAGTGATAAACCGG…AGGTTGGTTTCACT; site = the 11-nt donor
How it was run: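 Reported values are log10(CPM+1) from a pooled Escherichia coli screen of donor and donor-binding-loop pairs for the IS621 bridge recombinase. Selection used IPTG (0.07 mM) plus kanamycin, against unselected plating, each in two replicates. Recombinant UMIs were amplified across the donor–target junction, sequenced, converted to CPM, averaged over replicates and scaled by control-derived factors.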
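Note: IS621 bridge recombinase in Escherichia coli cells against a fixed T5 target plasmid.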

Sequence | recombinant UMI read abundance (log10)
CGGAATCCATGGACCGGTTTTCCCGGTAATCCGTATTTGGT (site CGGAATCCTAA) | 0
CGGAATCCATGGACCGGTTTTCCCGGTAATCCGTATTTGGT (site CGGAATCCTAC) | 0.913
CGGAATCCATGGACCGGTTTTCCCGGTAATCCGTATTTGGT (site CGGAATCCTAG) | 0
CGGAATCCATGGACCGGTTTTCCCGGTAATCCGTATTTGGT (site CGGAATCCTAT) | 0
CGGAATCCATGGACCGGTTTTCCCGGTAATCCGTATTTGTA (site CGGAATCCTAA) | 0
CGGAATCCATGGACCGGTTTTCCCGGTAATCCGTATTTGTA (site CGGAATCCTCA) | 0.781
CGGAATCCATGGACCGGTTTTCCCGGTAATCCGTATTTGTA (site CGGAATCCTGA) | 0
CGGAATCCATGGACCGGTTTTCCCGGTAATCCGTATTTGTA (site CGGAATCCTTA) | 1.29
CGGAATGCATGGACCGGTTTTCCCGGTAATCCGTATTTGGT (site CGGAATCCTAA) | 0
CGGAATGCATGGACCGGTTTTCCCGGTAATCCGTATTTGGT (site CGGAATGCTAC) | 2.27
CGGAATTCATGGACCGGTTTTCCCGGTAATCCGTATTTGTT (site CGGAATACTAA) | 0.00592
CGGAATTCATGGACCGGTTTTCCCGGTAATCCGTATTTGTT (site CGGAATCCTAA) | 0.0141
CGGAATTCATGGACCGGTTTTCCCGGTAATCCGTATTTGTT (site CGGAATGCTAA) | 0.00572
CGGAATTCATGGACCGGTTTTCCCGGTAATCCGTATTTGTT (site CGGAATTCTAA) | 2.72
CGGACATCATGGACCGGTTTTCCCGGTAATCCGTATTTGCG (site CGGACATCTAG) | 0
CGGACATCATGGACCGGTTTTCCCGGTAATCCGTATTTGCG (site CGGACATCTCG) | 2.25
CGGACATCATGGACCGGTTTTCCCGGTAATCCGTATTTGCG (site CGGACATCTGG) | 0
CGGACATCATGGACCGGTTTTCCCGGTAATCCGTATTTGCG (site CGGACATCTTG) | 0.00626
CGGACCCCATGGACCGGTTTTCCCGGTAATCCGTATTTGTT (site CGGAATCCTAA) | 0.00407
CGGACCCCATGGACCGGTTTTCCCGGTAATCCGTATTTGTT (site CGGACCCCTAA) | 1.02
CGGACTACATGGACCGGTTTTCCCGGTAATCCGTATTTGCG (site CGGACTACTCG) | 1.64
CGGACTTCATGGACCGGTTTTCCCGGTAATCCGTATTTGCC (site CGGACTTCTGG) | 1.27
CGGATGACATGGACCGGTTTTCCCGGTAATCCGTATTTGCA (site CGGATGACTTG) | 2.89
CGGATGGCATGGACCGGTTTTCCCGGTAATCCGTATTTGAA (site CGGATGGCTTT) | 2.15
CGGATTCCATGGACCGGTTTTCCCGGTAATCCGTATTTGCT (site CGGAATCCTAA) | 0
CGGATTCCATGGACCGGTTTTCCCGGTAATCCGTATTTGCT (site CGGATTCCTAG) | 0

Sequence | recombinant UMI read abundance (log10)
CGGCACTCATGGACCGGTTTTCCCGGTAATCCGTATTTGTA (site CGGCACTCTTA) | 3.03
CGGCAGTCATGGACCGGTTTTCCCGGTAATCCGTATTTGCC (site CGGAAGTCTGG) | 0
CGGCAGTCATGGACCGGTTTTCCCGGTAATCCGTATTTGCC (site CGGCAGTCTGG) | 2.22
CGGCAGTCATGGACCGGTTTTCCCGGTAATCCGTATTTGCC (site CGGGAGTCTGG) | 0
CGGCAGTCATGGACCGGTTTTCCCGGTAATCCGTATTTGCC (site CGGTAGTCTGG) | 0
CGGCCATCATGGACCGGTTTTCCCGGTAATCCGTATTTGCT (site CGGACATCTAG) | 0
CGGCCATCATGGACCGGTTTTCCCGGTAATCCGTATTTGCT (site CGGCCATCTAG) | 1.29
CGGCCATCATGGACCGGTTTTCCCGGTAATCCGTATTTGCT (site CGGGCATCTAG) | 0.0046
CGGCCATCATGGACCGGTTTTCCCGGTAATCCGTATTTGCT (site CGGTCATCTAG) | 0
CGGCCCACATGGACCGGTTTTCCCGGTAATCCGTATTTGTG (site CGGCCCACTCA) | 0.024
CGGCCGACATGGACCGGTTTTCCCGGTAATCCGTATTTGTA (site CGGCCGACTTA) | 1.2
CGGCCTCCATGGACCGGTTTTCCCGGTAATCCGTATTTGTT (site CGGAATCCTAA) | 0.0121
CGGCCTCCATGGACCGGTTTTCCCGGTAATCCGTATTTGTT (site CGGCCTCCTAA) | 0.0159
CGGCGCCCATGGACCGGTTTTCCCGGTAATCCGTATTTGAG (site CGGCGCCCTCT) | 0.00618
CGGCGCCCATGGACCGGTTTTCCCGGTAATCCGTATTTGTC (site CGGCGCCCTGA) | 1.85
CGGCTTTCATGGACCGGTTTTCCCGGTAATCCGTATTTGGC (site CGGCTTTCTGC) | 0.438
CGGGAAACATGGACCGGTTTTCCCGGTAATCCGTATTTGAT (site CGGGAAACTAT) | 2.27
CGGGAAACATGGACCGGTTTTCCCGGTAATCCGTATTTGAT (site CGGGAACCTAT) | 0.00381
CGGGAAACATGGACCGGTTTTCCCGGTAATCCGTATTTGAT (site CGGGAAGCTAT) | 2.21
CGGGAAACATGGACCGGTTTTCCCGGTAATCCGTATTTGAT (site CGGGAATCTAT) | 1.74
CGGGAACCATGGACCGGTTTTCCCGGTAATCCGTATTTGAT (site AGGGAACCTAT) | 0
CGGGAACCATGGACCGGTTTTCCCGGTAATCCGTATTTGAT (site CAGGAACCTAT) | 0
CGGGAACCATGGACCGGTTTTCCCGGTAATCCGTATTTGAT (site CCGGAACCTAT) | 0
CGGGAACCATGGACCGGTTTTCCCGGTAATCCGTATTTGAT (site CGAGAACCTAT) | 0
CGGGAACCATGGACCGGTTTTCCCGGTAATCCGTATTTGAT (site CGCGAACCTAT) | 0
CGGGAACCATGGACCGGTTTTCCCGGTAATCCGTATTTGAT (site CGGAAACCTAT) | 0

Source: the supplement of paper PMC11208160
